Measurements: patent publication US20230355670A1, “Methods of activating cytotoxic leukocytes using PTP1B and PTPN2 inhibitors” (Monash University, priority 2019, published 2023)

Experiments:
[1] = test system: HER-2-E0771 mammary tumour cells; test: Tumour growth of HER-2-E0771 mammary tumours in HER-2 TG mice after adoptive transfer of HER-2 CAR T cells, with MSI-1436 treatment; assay type: in vivo; details: MSI-1436 5 mg/kg intraperitoneally on days 1, 4, 7, 10, 13, 16 and 19 post adoptive transfer of total 20×10^6 HER-2 CAR T cells; versus saline; no IL-2; female HER-2 TG mice
Protocol: HER-2-E0771 mammary tumour cells (2×10^5) were injected into the fourth inguinal mammary fat pads of female HER-2 TG mice. Seven days after tumour injection HER-2 TG mice received total body irradiation (4 Gy) followed by the adoptive transfer of total 20×10^6 HER-2 CAR T cells (=6×10^6 viable mCherry^+HER2 CAR^+CD8^+CD44^hiCD62L^hi T cells) generated from Ptp1b^fl/fl versus Lck-Cre;Ptp1b^fl/fl splenocytes; mice were not administered IL-2. Mice were treated with PTP1B specific allosteric inhibitor MSI-1436 (5 mg/kg intraperitoneally) or saline on days 1, 4, 7, 10, 13, 16 and 19 post adoptive transfer and tumour growth was monitored. Representative results (means±SEM) from at least two independent experiments are shown. Significance was determined using 2-way ANOVA Test; *p<0.05 ****p<0.0001.
HER-2-E0771 mammary tumour cells (2×10^5) were injected into the fourth inguinal mammary fat pads of female HER-2 TG mice. […] Mice were treated with PTP1B specific allosteric inhibitor MSI-1436 (5 mg/kg intraperitoneally) or saline on days 1, 4, 7, 10, 13, 16 and 19 post adoptive transfer and tumour growth was monitored. […] Significance was determined using 2-way ANOVA Test; *p<0.05, ****p<0.0001.

[2] = test system: HER-2-E0771 mammary tumour cells; test: Tumour growth of HER-2-E0771 mammary tumours in HER-2 TG mice after adoptive transfer of control or Ptpn2-/- HER-2 CAR T cells, with MSI-1436 treatment; assay type: in vivo; details: MSI-1436 5 mg/kg intraperitoneally on days 1, 4 and 7 post adoptive transfer of total 5×10^6 control or Ptpn2-/- HER-2 CAR T cells; versus saline; female HER-2 TG mice
Protocol: HER-2-E0771 mammary tumour cells (2×10^5) were injected into the fourth inguinal mammary fat pads of female HER-2 TG mice. Seven days after tumour injection HER-2 TG mice received total body irradiation (4 Gy) followed by the adoptive transfer of total 5×10^6 HER-2 CAR T cells (=0.8×10^6 viable mCherry^+HER-2 CAR^+CD8^+CD44^hiCD62L^hi T cells) control (ctrl) or Ptpn2^−/− HER-2 CAR CD8 T cells (PTPN2 had been deleted by CRISPR-RNP). HER-2 mice were treated with MSI-1436 (5 mg/kg intraperitoneally) or saline on days 1, 4, and 7 post adoptive transfer and tumour growth was monitored. Significance in was determined using 2-way ANOVA Test; ****p<0.0001.

SMILES: CC(C)[C@@H](CC[C@@H](C)[C@H]1CC[C@H]2[C@@H]3[C@H](O)C[C@H]4C[C@@H](NCCCNCCCCNCCCN)CC[C@]4(C)[C@H]3CC[C@]12C)OS(=O)(=O)O [MSI-1436, Trodusquemine]
- tumour growth (tumour-specific activity of HER2 CAR T cells in vivo) [1]: Enhances the Tumour-Specific Activity of HER2 CAR T Cells In Vivo
- tumour growth (activity of CAR T cells in vivo) [2]: ‘supercharges’ CAR T cells in vivo
